Source: patent publication US8361970B2, “Growth factor binding molecules” (University of South Florida, priority 2000, dated 2013)
Where “and” joins values, the source holds several entries; their conditions need not be identical. Identical values can stand only once. Like-named read-outs stand apart in the source and are kept apart here. Positions of bridges follow the written chain, without caps; N, C: chain ends. Non-standard residues stand in square brackets, D forms with d. d2Nal = N[C@H](Cc1ccc2ccccc2c1)C(=O)O; dAbu = CC[C@@H](N)C(=O)O

Legend:
Assay type in all cases: cell-based
[1] = system: PDGF-stimulated PDGFR tyrosine phosphorylation; assay: Inhibition of PDGF-stimulated PDGFR tyrosine phosphorylation in NIH 3T3 cells (anti-phosphotyrosine Western blot); details: 5 min pretreatment, PDGF 10 ng/ml 10 min, read-out: (IC50) Inhibition PDGFR-Y-P
Description: Starved NIH 3T3 cells are pretreated with various growth factor binding agents (0-100 μM) for 5 min before stimulation with PDGF (10 ng/mL) for 10 min. The cells are then harvested and lysed, and the proteins from the lysates separated by SDS-PAGE and immunoblotted with an anti-phosphotyrosine antibody (4G10: Upstate Biotechnology, Lake Placid, N.Y.). The phosphotyrosine PDGF receptor bands are scanned, and the concentrations of growth factor binding molecules that inhibited the ability of PDGF to stimulate PDGFR tyrosine phosphorylation by 50% are determined.
(§1) Starved NIII 3T3 cells (PDGF-BB and PDGF-AA), NIH 3T3 cells overexpressing either EGFR (EGF) or Flk-1 (VEGF) are pre-treated with the indicated concentrations of GFB-111 for 5 minutes before 10 minutes of stimulation with PDGF-BB (10 ng/ml), PDGF-AA (10 ng/ml), EGF (100 ng/ml) and VEGF (50 ng/ml). Cell lysates are run on SDS-PAGE gels, then transferred to nitrocellulose and Western blotted with anti-phosphotyrosine (4G 10) or anti-phosphorylated Erk1/Erk2 (New England Biolabs).
A novel series of protein surface binding agents are prepared that bind PDGF and disrupt its signaling function. The molecules are composed of a central calix[4] arene scaffold to which is attached four peptide loop domains (FIG. 1). The peptide loop component is based on a cyclic hexapeptide in which two residues are replaced by a 3-aminomethylbenzoate dipeptide mimetic containing a 5-amino substituent for attachment to the scaffold. The resulting molecules (as shown in Table 1) contain a functionalized and variable surface approximately 500 Å^2 in area. Several peptide loop sequences are synthesized (Table 1) to provide molecular surfaces with negatively and positively charged as well as hydrophobic regions designed to bind to complementary areas on the target growth factor. To identify PDGF binding molecules from this library, a cell-based screening assay is developed with NIH 3T3 cells to detect molecules capable of blocking PDGF-BB-induced tyrosine autophosphorylation of the PDGF receptor. The ability of the identified molecules to bind PDGF-BB and inhibit interaction with its receptor is then confirmed biochemically. Starved NIH 3T3 cells are pretreated for 5 min with the synthetic molecules prior to stimulation with PDGF for 10 min. The effects of the molecules on PDGF-stimulated receptor tyrosine phosphorylation are determined by the antiphosphotyrosine Western blotting as described in Table 1. […] GFB-111 has four-fold symmetry containing 4 identical peptide loops with negative and hydrophobic residues, GlyAspGlyTyr (GDGY) (SEQ ID NO. 6), that are designed to be complementary to the PDGF surface involved in binding to PDGFR. The area of PDGF-BB that binds PDGFR is composed primarily of positive and hydrophobic residues.
Starved NIH 3T3 cells are pretreated with the various GFBs (0-100 μM) for 5 min. prior to stimulation with PDGF (10 ng/ml) for 10 min. The cells are then harvested lysed and the proteins from the lysates are separated by SDS-PAGE and immunoblotted with an anti-phosphotyrosine antibody (4G10, Upstate Biotechnology, Lake Placid, N.Y.). The phosphotyrosine PDGF receptor bands are scanned and the concentrations of GFBs that inhibit the ability of PDGF to stimulate PDGFR tyrosine phosphorylation by 50% are determined. Data for each compound is representative of at least two independent experiments. FIG. 1 illustrates the structure of growth factor binders. GFBs are synthesized as described by Park, H. D. et al., Protein surface recognition by synthetic receptors: A route to novel sub-micromolar inhibitors for chymotrypsin. J. Am. Chem. Soc. 121, 8-13 (1999); and Hamuro, Y. et al., A calixarene with four peptide loops: An antibody mimic for recognition of protein surfaces. Angew. Chemie Int. Ed. Engl. 36, 2680-2683 (1997), each herein incorporated by reference in its respective entirety.

[2] = system: PDGF-stimulated Erk1/Erk2 activation; assay: Inhibition of PDGF-stimulated activation of MAPK Erk1/Erk2 (p44/p42) in NIH 3T3 cells; details: NIH 3T3, PDGF stimulated
Description: as §1
(§2) In other experiments, starved NIH 3T3 cells (PDGF-AA, PDGF-BB, aFGF, bFGF), NIH 3T3 cells overexpressing EGFR. IGF-1R or Flk-1 and the human breast carcinoma SkBr3 that overexpresses ErbB2 (HRGβ) are pretreated with GFB-111 (100 μM) for 5 min before 10 min stimulation with the indicated growth factors at the concentrations shown above and aFGF (10 ng/ml), bFGF (50 ng/ml), IGF-1 (50 ng/ml) and HRGβ (10 ng/ml). Cell lysates are then immunoblotted with anti-phospho Erk1/Erk2 as described above.

[3] = system: IGF-1 stimulated IGF-1R tyrosine phosphorylation; assay: Inhibition of IGF-1 stimulated IGFR tyrosine phosphorylation in IGFR/3T3 cells; details: 100 μM; IGFR/3T3, IGF-1 stimulated
Description: (§3) The ability of the GFB library to block the ability of IGF-1 to stimulate the IFG-1 R tyrosine phosphorylation and MAP kinase activation is evaluated using the cell assay described above with IGF-1R/3T3 cells as target cell. […] A preferred embodiment of the invention is a compound that binds to an insulin-like growth factor-1, of the general structure III, wherein R is n-butyl, n-propyl, or benzyl, and X1, X2, X3, and X4 optionally comprise identical cyclic peptide loops of the general structure II, and wherein R1, R2, R3, and R4 are each amino acid side chains that define a tetrapeptide sequence, wherein said tetrapeptide is covalently attached at the amino and carboxy termini of said tetrapeptide to a 3-aminomethyl-5-aminobenzamide linking group.

[4] = system: IGF-1 stimulated MAP kinase activation; assay: Inhibition of IGF-1 stimulated MAP kinase (p42/p44) activation in IGFR/3T3 cells; details: 100 μM; IGFR/3T3, IGF-1 stimulated
Description: as §2, §3

[5] = head p42/Erk2 (p42 for GFB-132 to 137), read-out: (IC50) Inhibition p42/Erk2
[6] = read-out: (IC50) Inhibition p44

Substance	IC50 [1] [µM]	IC50 [2, 5] [µM]	% Inhibition at 100 μM IGF1R-Y-P [3]	% Inhibition at 100 μM p44 [4]	IC50 [2, 6] [µM]	% Inhibition at 100 μM p42 [4] [%]
GDAD [GFB-110]	1.7	7	40.9% and 32.4%	55.4% and 47.1%	–	–
GDGY [GFB-137]	0.4	2.9	36.0%	38.2%	47	5.9
GDLD [GFB-109]	7.5	15	–	79.7%	–	68.3
GDDG [GFB-131]	–	–	30.2%	20.0%	–	−6.2
PDGD [GFB-119]	20	32	16.7%	66.2%	–	29.7
GDND [GFB-117]	5.8	36	4.9%	61.5%	–	17.1
GDDD [GFB-129]	–	–	3.4%	33.4%	–	2.8
GDDY [GFB-122]	1.7	19	38.4%	66.6%	–	33.6
GDDY [GFB-130]	–	–	22.7%	−17.5%	–	−19.7
GFB-118: But-Calix scaffold with peptide loops 4-D-2-NalDGD (SEQ ID NO. 17) ([d2Nal]DGD; linker N-C via 3‑aminomethyl‑5‑aminobenzamide; also: four loops attached to But-Calix scaffold)	0.7	1.2	1.5%	55.2%	–	16.4
GDGY [GFB-135]	1.9	3.2	16.2%	46.1%	24	0.8
GDGD [GFB-103]	> 500	> 500	–	–	–	–
GDDD [GFB-136]	3	25	40.6%	–	24	15.0
GKGF [GFB-115]	> 50	> 50	−38.3%	51.9%	–	−12.4
GDGY [GFB-128]	26	> 50	−12.0%	38.2%	–	−6.1
GFB-121: But-Calix scaffold with peptide loops 4-D-AbuDGD (SEQ ID NO. 18) ([dAbu]DGD; linker N-C via 3‑aminomethyl‑5‑aminobenzamide; also: four loops attached to But-Calix scaffold)	5.6	8.5	33.8%	62.1%	–	28.3
GDGY [GFB-132]	0.4	2.9	30.2%	39.4%	3	11.0
GDGY [GFB-134]	1.9	2.5	16.8%	53.5%	2.6	4.9
GDGD [GFB-104]	> 500	> 500	−28.4%	22.4%	–	−0.19
GDDG [GFB-123]	> 50	> 50	24.2%	62.4%	–	26.7
GDDG [GFB-120]	1.3	1.7	35.4%	85.9%	–	68.1
